Reference: patent US12065436B2, “Cardiac sarcomere inhibitors” (Cytokinetics, Inc., priority 2018, dated 2024)

Target: bovine cardiac myofibrils (full-length cardiac myosin ATPase in the native sarcomere) (Bos taurus (Bovine), UniProt Q9BE39)
Assay: Skinned bovine cardiac myofibril ATPase assay (PK/LDH-coupled)
Assay type: biochemical
Details: Ca2+ activating to 75% of maximal rate; for CDMF75 IC15: concentration giving 15% inhibition; for IC50: read-out: CDMF75 IC50
Method in brief: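 Triton-skinned bovine left-ventricle myofibrils (1 mg/mL) in PM 12 buffer (12 mM PIPES, 2 mM MgCl2, pH 6.8) with 50 μM ATP, 0.6 mM EGTA and CaCl2 set for 50% or 75% activation. Steady-state ATPase inhibition followed by PK/LDH-coupled NADH oxidation at 340 nm.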

Chain of bovine cardiac myofibrils (full-length cardiac myosin ATPase in the native sarcomere) (Q9BE39 whole entry): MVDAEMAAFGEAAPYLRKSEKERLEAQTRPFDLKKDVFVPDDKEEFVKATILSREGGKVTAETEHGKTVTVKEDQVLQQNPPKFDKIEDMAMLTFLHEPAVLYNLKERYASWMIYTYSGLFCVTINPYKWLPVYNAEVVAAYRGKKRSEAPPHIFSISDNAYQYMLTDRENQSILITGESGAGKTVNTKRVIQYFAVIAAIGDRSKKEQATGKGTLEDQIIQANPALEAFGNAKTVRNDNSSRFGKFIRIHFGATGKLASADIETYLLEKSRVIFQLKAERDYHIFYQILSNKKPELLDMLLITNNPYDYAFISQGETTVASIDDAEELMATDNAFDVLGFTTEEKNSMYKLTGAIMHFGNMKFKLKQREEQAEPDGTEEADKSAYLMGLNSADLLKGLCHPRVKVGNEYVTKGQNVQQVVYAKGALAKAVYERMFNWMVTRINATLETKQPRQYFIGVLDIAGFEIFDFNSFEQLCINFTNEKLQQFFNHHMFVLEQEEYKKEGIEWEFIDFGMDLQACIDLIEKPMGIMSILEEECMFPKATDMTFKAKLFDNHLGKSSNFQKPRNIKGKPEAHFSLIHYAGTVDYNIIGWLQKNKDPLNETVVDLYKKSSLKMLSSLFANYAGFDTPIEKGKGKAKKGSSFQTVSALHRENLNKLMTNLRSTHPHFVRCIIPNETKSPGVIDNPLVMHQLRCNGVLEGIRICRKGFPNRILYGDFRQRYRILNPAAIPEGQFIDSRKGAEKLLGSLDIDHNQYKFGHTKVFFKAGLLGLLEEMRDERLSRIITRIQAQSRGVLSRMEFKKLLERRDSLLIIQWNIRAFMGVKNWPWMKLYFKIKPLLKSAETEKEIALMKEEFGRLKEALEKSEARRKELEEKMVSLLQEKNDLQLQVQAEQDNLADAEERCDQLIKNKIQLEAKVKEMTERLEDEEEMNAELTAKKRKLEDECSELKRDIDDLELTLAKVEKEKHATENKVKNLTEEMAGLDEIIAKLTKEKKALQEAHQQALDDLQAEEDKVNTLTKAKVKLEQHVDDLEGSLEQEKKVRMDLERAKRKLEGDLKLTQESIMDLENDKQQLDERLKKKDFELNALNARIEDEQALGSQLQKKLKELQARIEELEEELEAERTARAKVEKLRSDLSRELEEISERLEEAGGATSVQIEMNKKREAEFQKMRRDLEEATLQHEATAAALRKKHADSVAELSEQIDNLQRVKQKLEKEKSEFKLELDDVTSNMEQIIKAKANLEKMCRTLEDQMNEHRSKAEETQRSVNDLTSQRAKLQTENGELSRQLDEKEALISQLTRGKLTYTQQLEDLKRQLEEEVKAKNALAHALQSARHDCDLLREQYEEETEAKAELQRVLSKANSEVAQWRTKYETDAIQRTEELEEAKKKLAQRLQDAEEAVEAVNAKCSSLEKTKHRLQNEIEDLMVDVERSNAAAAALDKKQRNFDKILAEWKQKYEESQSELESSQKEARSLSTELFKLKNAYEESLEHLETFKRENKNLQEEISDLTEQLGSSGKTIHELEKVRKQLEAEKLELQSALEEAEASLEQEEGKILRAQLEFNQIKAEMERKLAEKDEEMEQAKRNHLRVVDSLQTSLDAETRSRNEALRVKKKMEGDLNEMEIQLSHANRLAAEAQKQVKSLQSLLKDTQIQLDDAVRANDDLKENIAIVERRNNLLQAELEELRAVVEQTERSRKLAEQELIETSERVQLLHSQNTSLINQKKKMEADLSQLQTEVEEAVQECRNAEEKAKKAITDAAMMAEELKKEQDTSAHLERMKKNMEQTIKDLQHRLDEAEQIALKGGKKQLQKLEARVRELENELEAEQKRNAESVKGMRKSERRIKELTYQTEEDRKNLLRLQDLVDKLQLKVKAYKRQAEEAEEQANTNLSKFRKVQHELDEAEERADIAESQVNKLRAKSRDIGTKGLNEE
Chain of bovine cardiac myofibrils (full-length cardiac myosin ATPase in the native sarcomere) (P85100 whole entry partner): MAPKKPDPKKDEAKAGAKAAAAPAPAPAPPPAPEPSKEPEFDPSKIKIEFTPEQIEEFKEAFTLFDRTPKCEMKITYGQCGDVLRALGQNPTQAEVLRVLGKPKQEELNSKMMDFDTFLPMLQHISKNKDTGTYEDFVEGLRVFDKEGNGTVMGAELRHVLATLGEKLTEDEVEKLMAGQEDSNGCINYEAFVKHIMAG
Chain of bovine cardiac myofibrils (full-length cardiac myosin ATPase in the native sarcomere) (Q3SZE5 whole entry partner): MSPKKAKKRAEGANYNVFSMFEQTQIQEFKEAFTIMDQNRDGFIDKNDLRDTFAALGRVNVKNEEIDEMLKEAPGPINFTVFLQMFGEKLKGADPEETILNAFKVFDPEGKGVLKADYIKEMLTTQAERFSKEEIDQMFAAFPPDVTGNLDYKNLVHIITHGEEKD

CDMF75 IC15 [nM]	IC50 [nM]	SMILES
700	2500	Cc1nc(-c2ccc3c(c2)CCC3NC(=O)c2oncc2C)no1 (stereo not shown) [Compound 88, 4-methyl-N-(5-(5-methyl-1,2,4-oxadiazol-3-yl)-2,3-dihydro-1H-inden-1-yl)isoxazole-5-carboxamide]
1000	3300	Cc1nc(-c2ccc3c(c2)CCC3NC(=O)c2conc2C)no1 (stereo not shown) [Compound 89, 3-methyl-N-(5-(5-methyl-1,2,4-oxadiazol-3-yl)-2,3-dihydro-1H-inden-1-yl)isoxazole-4-carboxamide]
400	1900	Cc1nn(C)cc1C(=O)N[C@@H]1CCc2cc(-c3noc(C(F)F)n3)ccc21 [Compound 90, (R)-N-(5-(5-(difluoromethyl)-1,2,4-oxadiazol-3-yl)-2,3-dihydro-1H-inden-1-yl)-1,3-dimethyl-1H-pyrazole-4-carboxamide]
500	1800	Cc1c(C(=O)N[C@@H]2CCc3cc(-c4noc(C(F)F)n4)ccc32)cnn1C [Compound 91, (R)-N-(5-(5-(difluoromethyl)-1,2,4-oxadiazol-3-yl)-2,3-dihydro-1H-inden-1-yl)-1,5-dimethyl-1H-pyrazole-4-carboxamide]
300	800	Cn1nccc1C(=O)N[C@@H]1CCc2cc(-c3noc(C(F)F)n3)ccc21 [Compound 92, (R)-N-(5-(5-(difluoromethyl)-1,2,4-oxadiazol-3-yl)-2,3-dihydro-1H-inden-1-yl)-1-methyl-1H-pyrazole-5-carboxamide]
5200	26600	O=C(NC1CCc2cc(-c3noc(C(F)F)n3)cnc21)c1ccccc1 (stereo not shown) [Compound 94, N-(3-(5-(difluoromethyl)-1,2,4-oxadiazol-3-yl)-6,7-dihydro-5H-cyclopenta[b]pyridin-7-yl)benzamide]
1900	8000	O=C(NC1CCc2cc(-c3noc(C(F)F)n3)ccc21)c1ccnc(O)c1 (stereo not shown) [Compound 95, N-(5-(5-(difluoromethyl)-1,2,4-oxadiazol-3-yl)-2,3-dihydro-1H-inden-1-yl)-2-hydroxyisonicotinamide]
3000	13400	Cc1nc(-c2ccc3c(c2)CCC3NC(=O)Nc2cncnc2)no1 (stereo not shown) [Compound 96, 1-(5-(5-methyl-1,2,4-oxadiazol-3-yl)-2,3-dihydro-1H-inden-1-yl)-3-(pyrimidin-5-yl)urea]
2000	7800	Cc1nc(-c2ccc3c(c2)CCC3NC(=O)Nc2cccnn2)no1 (stereo not shown) [Compound 97, 1-(5-(5-methyl-1,2,4-oxadiazol-3-yl)-2,3-dihydro-1H-inden-1-yl)-3-(pyridazin-3-yl)urea]
13100	> 39200	Cc1nc(-c2ccc3c(c2)CCC3NC(=O)Nc2ccncn2)no1 (stereo not shown) [Compound 98, 1-(5-(5-methyl-1,2,4-oxadiazol-3-yl)-2,3-dihydro-1H-inden-1-yl)-3-(pyrimidin-4-yl)urea]
600	2600	Nc1cc(C(=O)NC2CCc3cc(-c4noc(C(F)F)n4)ccc32)ccn1 (stereo not shown) [Compound 99, 2-amino-N-(5-(5-(difluoromethyl)-1,2,4-oxadiazol-3-yl)-2,3-dihydro-1H-inden-1-yl)isonicotinamide]
300	1100	Cc1cc(C(=O)N[C@@H]2CCc3cc(-c4noc(C(F)F)n4)ccc32)n(C)n1 [Compound 101, (R)-N-(5-(5-(difluoromethyl)-1,2,4-oxadiazol-3-yl)-2,3-dihydro-1H-inden-1-yl)-1,3-dimethyl-1H-pyrazole-5-carboxamide]
1700	6300	Cc1conc1C(=O)NC1CCc2cc(-c3noc(C(F)F)n3)ccc21 (stereo not shown) [Compound 104, N-(5-(5-(difluoromethyl)-1,2,4-oxadiazol-3-yl)-2,3-dihydro-1H-inden-1-yl)-4-methylisoxazole-3-carboxamide]
2200	8900	Cc1nc(-c2ccc3c(c2)CCC3NC(=O)c2nocc2C)no1 (stereo not shown) [Compound 105, 4-methyl-N-(5-(5-methyl-1,2,4-oxadiazol-3-yl)-2,3-dihydro-1H-inden-1-yl)isoxazole-3-carboxamide]
800	2800	Cc1cc(C(=O)N[C@@H]2CCc3cc(-c4noc(C)n4)ccc32)n(C)n1 [Compound 106, (R)-1,3-dimethyl-N-(5-(5-methyl-1,2,4-oxadiazol-3-yl)-2,3-dihydro-1H-inden-1-yl)-1H-pyrazole-5-carboxamide]
500	1700	Cc1nc(-c2ccc3c(c2)CC[C@H]3NC(=O)c2ccnn2C)no1 [Compound 107, (R)-1-methyl-N-(5-(5-methyl-1,2,4-oxadiazol-3-yl)-2,3-dihydro-1H-inden-1-yl)-1H-pyrazole-5-carboxamide]

CDMF75 IC15 [nM]	IC50 [nM]	SMILES
5200	24000	CCc1nc(-c2cnc3c(c2)CCC3NC(=O)c2ccnc(C)c2)no1 (stereo not shown) [Compound 108, N-(3-(5-ethyl-1,2,4-oxadiazol-3-yl)-6,7-dihydro-5H-cyclopenta[b]pyridin-7-yl)-2-methylisonicotinamide]
1900	7100	Cc1nc(-c2ccc3c(c2)CCC3NC(=O)Nc2ccccn2)no1 (stereo not shown) [Compound 109, 1-(5-(5-methyl-1,2,4-oxadiazol-3-yl)-2,3-dihydro-1H-inden-1-yl)-3-(pyridin-2-yl)urea]
39200	> 39200	Cc1nc(-c2ccc3c(c2)CCC3NC(=O)Nc2ncccn2)no1 (stereo not shown) [Compound 110, 1-(5-(5-methyl-1,2,4-oxadiazol-3-yl)-2,3-dihydro-1H-inden-1-yl)-3-(pyrimidin-2-yl)urea]
1100	3700	Cc1nc(-c2ccc3c(c2)CC[C@H]3NC(=O)c2cn(C)nc2C)no1 [Compound 111, (R)-1,3-dimethyl-N-(5-(5-methyl-1,2,4-oxadiazol-3-yl)-2,3-dihydro-1H-inden-1-yl)-1H-pyrazole-4-carboxamide]
1500	5200	Cc1nc(-c2ccc3c(c2)CC[C@H]3NC(=O)c2oc(C)nc2C)no1 [Compound 112, (R)-2,4-dimethyl-N-(5-(5-methyl-1,2,4-oxadiazol-3-yl)-2,3-dihydro-1H-inden-1-yl)oxazole-5-carboxamide]
300	1300	Cc1nc(-c2ccc3c(c2)CC[C@H]3NC(=O)c2oncc2C)no1 [Compound 113, (R)-4-methyl-N-(5-(5-methyl-1,2,4-oxadiazol-3-yl)-2,3-dihydro-1H-inden-1-yl)isoxazole-5-carboxamide]
500	2000	COCc1nc(-c2ccc3c(c2)CC[C@H]3NC(=O)c2oncc2C)no1 [Compound 114, (R)-N-(5-(5-(methoxymethyl)-1,2,4-oxadiazol-3-yl)-2,3-dihydro-1H-inden-1-yl)-4-methylisoxazole-5-carboxamide]
300	900	Cc1cnoc1C(=O)N[C@@H]1CCc2cc(-c3noc(C4CC4)n3)ccc21 [Compound 115, (R)-N-(5-(5-cyclopropyl-1,2,4-oxadiazol-3-yl)-2,3-dihydro-1H-inden-1-yl)-4-methylisoxazole-5-carboxamide]
1900	10100	Cc1cnoc1C(=O)N[C@@H]1CCc2cc(-c3noc(C4COC4)n3)ccc21 [Compound 117, (R)-4-methyl-N-(5-(5-(oxetan-3-yl)-1,2,4-oxadiazol-3-yl)-2,3-dihydro-1H-inden-1-yl)isoxazole-5-carboxamide]
19300	> 39200	Cn1cnc(C(=O)NC2CCc3cc(-c4noc(C(F)F)n4)ccc32)n1 (stereo not shown) [Compound 118, N-(5-(5-(difluoromethyl)-1,2,4-oxadiazol-3-yl)-2,3-dihydro-1H-inden-1-yl)-1-methyl-1H-1,2,4-triazole-3-carboxamide]
39200	> 39200	Cc1nc(-c2ccc3c(c2)CCC3NC(=O)c2ncn(C)n2)no1 (stereo not shown) [Compound 119, 1-methyl-N-(5-(5-methyl-1,2,4-oxadiazol-3-yl)-2,3-dihydro-1H-inden-1-yl)-1H-1,2,4-triazole-3-carboxamide]
2400	9800	Cc1nc(-c2ccc3c(c2)CCC3NC(=O)c2ncnn2C)no1 (stereo not shown) [Compound 120, 1-methyl-N-(5-(5-methyl-1,2,4-oxadiazol-3-yl)-2,3-dihydro-1H-inden-1-yl)-1H-1,2,4-triazole-5-carboxamide]
1000	3100	Cc1nc(-c2ccc3c(c2)OCC3NC(=O)c2ccnn2C)no1 (stereo not shown) [Compound 121, 1-methyl-N-(6-(5-methyl-1,2,4-oxadiazol-3-yl)-2,3-dihydrobenzofuran-3-yl)-1H-pyrazole-5-carboxamide]
500	1800	Cc1nc(-c2ccc3c(c2)OC[C@H]3NC(=O)c2ccnn2C)no1 [Compound 122, (S)-1-methyl-N-(6-(5-methyl-1,2,4-oxadiazol-3-yl)-2,3-dihydrobenzofuran-3-yl)-1H-pyrazole-5-carboxamide]
500	1700	Cn1nccc1C(=O)NC1COc2cc(-c3noc(C(F)F)n3)ccc21 (stereo not shown) [Compound 123, N-(6-(5-(difluoromethyl)-1,2,4-oxadiazol-3-yl)-2,3-dihydrobenzofuran-3-yl)-1-methyl-1H-pyrazole-5-carboxamide]
1600	6200	Cc1nc(-c2ccc3c(c2)CC[C@H]3NC(=O)c2ccc3[nH]c(=O)[nH]c3c2)no1 [Compound 125, (R)-N-(5-(5-methyl-1,2,4-oxadiazol-3-yl)-2,3-dihydro-1H-inden-1-yl)-2-oxo-2,3-dihydro-1H-benzo[d]imidazole-5-carboxamide]
